Assay [1] has as its target human dopamine D2 (Long form) receptors (Homo sapiens, UniProt P14416). In words: Receptor binding assay, [3H]spiperone competition, D2. As to the method:
(§1) The D2 receptor cDNA was subcloned into an expression vector, pRc/CMV. The plasmids were transfected by electroporation into CHO K1 cells. A single stable transfectant, resistant to the antibiotic G418, was isolated and selected for use in the binding studies.
(§2) Cells were grown until confluent, after which growth medium was removed and replaced with 0.02% ethylene diamine tetracetate (EDTA) in a phosphate-buffered saline solution (Sigma Chemical Co., St. Louis, Missouri) and scraped from the flasks. The cells were centrifuged at about 1000 × g for 10 minutes at […] and then resuspended in TEM buffer (25 mM Tris-HCl, pH 7.4, 5 mM EDTA, and 6 mM MgCl2) for D2 or the D4.2 buffer (50 mM Tris-HCl, pH 7.4, 5 mM EDTA, 1.5 mM CaCl2, 5 mM KCl, and 120 mM NaCl) and homogenized. The membranes were pelleted by centrifugation at 20,000 × g at […] for 20 minutes. Then the pellets were resuspended in appropriate buffer at 1 mL/flask and stored at -70°C until used in the receptor binding assay.
(§3) After 60 minutes incubation at 25°C, the incubations were terminated by rapid filtration through Whatmann GF/B glass fibre filters (soaked for 1 hour in 0.5% polyethylenimine) on a -cell harvester, with three washes of 1 mL ice-cold buffer. Individual filter disks containing the bound ligand were placed in counting vials with 4 mL of scintillation fluid (Ready Gel, Beckman Instrument Inc., Fullerton, California) and then counted in a Beckman LS-6800 liquid scintillation counter at an efficiency of 45%. Nonspecific binding was defined in presence of […] of haloperidol.
(§4) Saturation and competition binding data were analyzed using an iterative nonlinear least-square curve-fitting Ligand program. […] Experimental compounds were made up as stock solutions in dimethyl sulfoxide (DMSO). […] Each observation was carried out in triplicate. To allow these calculations, Ki values were measured for the interaction of various ligands with the receptor. […]

Assay [2] concerns the target T1, human recombinant dopamine D4.2 receptor subtype (Homo sapiens, UniProt P21917, DEL265-296).
T1 sequence (P21917 with tags, fused parts or gaps DEL265-296): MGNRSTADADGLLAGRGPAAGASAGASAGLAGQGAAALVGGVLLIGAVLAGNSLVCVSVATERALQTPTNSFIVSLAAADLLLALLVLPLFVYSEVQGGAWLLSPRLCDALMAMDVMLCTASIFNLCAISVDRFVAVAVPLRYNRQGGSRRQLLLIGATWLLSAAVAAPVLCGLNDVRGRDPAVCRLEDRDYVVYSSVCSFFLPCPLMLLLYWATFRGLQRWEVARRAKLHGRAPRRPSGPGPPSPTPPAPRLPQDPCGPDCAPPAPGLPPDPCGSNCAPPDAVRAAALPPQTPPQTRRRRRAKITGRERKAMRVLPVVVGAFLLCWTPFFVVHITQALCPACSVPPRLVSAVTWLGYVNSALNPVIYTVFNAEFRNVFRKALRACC
In words: Receptor binding assay, [3H]spiperone competition, D4.2. The conditions noted are these: for D2/D4 Ratio: ratio of D2 Ki to D4 Ki. As to the method:
as §1, §2, §3, §4

Where [3] appears, read: CHO K1 cell membranes, 0.2 nM [3H]spiperone, 60 minutes at 25°C, apparent Ki from IC50 by Cheng and Prusoff.
Where [4] appears, read: CHO K1 cell membranes, 0.2 nM [3H]spiperone, 60 minutes at 25°C, apparent Ki from IC50 by Cheng and Prusoff, read-out: D4 (Ki).

SMILES strings stand for the structures. Read-outs that look alike come from different tables or passages of the source.

Chain of human dopamine D2 (Long form) receptors (P14416 whole entry): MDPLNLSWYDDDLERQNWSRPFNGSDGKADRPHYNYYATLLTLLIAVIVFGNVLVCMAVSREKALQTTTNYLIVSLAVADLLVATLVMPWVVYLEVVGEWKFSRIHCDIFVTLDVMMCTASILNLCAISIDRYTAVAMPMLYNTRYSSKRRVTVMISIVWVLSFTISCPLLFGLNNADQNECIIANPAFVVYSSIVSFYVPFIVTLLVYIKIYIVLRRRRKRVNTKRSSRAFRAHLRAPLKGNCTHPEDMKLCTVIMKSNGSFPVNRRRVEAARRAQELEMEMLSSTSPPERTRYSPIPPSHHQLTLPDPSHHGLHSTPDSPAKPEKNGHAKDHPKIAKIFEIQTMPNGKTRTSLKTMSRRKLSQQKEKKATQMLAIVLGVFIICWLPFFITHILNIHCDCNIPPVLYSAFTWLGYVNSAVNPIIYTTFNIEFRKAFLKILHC

Regarding `O=C1COc2cc(CN3CCN(c4ccc(Cl)cc4)CC3)ccc2N1` [Example 35, 7-[4-(4-Chloro-phenyl)-piperazin-1-ylmethyl]-4H-benzo[1,4]oxazin-3-one], in assay [1], the Ki came to 620 nM. In addition, in assay [2], the Ki was 4.68 nM and the “D2/D4 Ratio” value came out at 132.5. Take `O=C1COc2ccc(CN3CCN(c4ccc(Cl)cc4)CC3)cc2N1` [Example 32, 6-[4-(4-Chloro-phenyl)-piperazin-1-ylmethyl]-4H-benzo [1,4]oxazin-3-one]: in assay [2] (read-out: D4 (Ki)), the Ki is 62.5 nM.

In the case of `COc1ccc(C2CCN(Cc3ccc4c(c3)OCC(=O)N4)CC2)cc1` [Example 38, 7-[4-(4-Methoxy-phenyl)-piperidin-1-ylmethyl]-4H-benzo[1,4]oxazin-3-one], the figures for the Ki in assay [1] (setting [3]) and in assay [2] (read-out: D4 (Ki)) were 1130 nM and 6.7 nM, respectively. The “D2/D4 Ratio” value in assay [2] is given as 168.1. As to `O=C1COc2ccc(CN3CCN(c4ccc(C(F)(F)F)cc4)CC3)cc2N1` [Example 31, 6-[4-(4-Trifluoromethyl-phenyl)-piperazin-l-ylmethyl] -4H-benzo[1,4]oxazin-3-one], the Ki in assay [2] (setting [4]) worked out at 173 nM. With `NS(=O)(=O)c1ccc(N2CCN(Cc3ccc4c(c3)NC(=O)CO4)CC2)cc1` [Example 4, 4-[4-(3-oxo-3,4-dihydro-2H-benzo[1,4]-oxazin-6-ylmethyl)-piperazin-1-yl]-benzenesulfonamide], the Ki in assay [2] (read-out: D4 (Ki)) was 23.6 nM. For the molecule `O=C1COc2ccc(CN3CCN(c4ccccc4)CC3)cc2N1` [Example 8, 6-[4-phenyl-piperazin-1-ylmethyl]-4H-benzo[1,4]oxazin-3-one], the Ki in assay [2] (read-out: D4 (Ki)) came to 18.3 nM. For the molecule `O=C1COc2cc(CN3CCN(c4ccccc4)CC3)ccc2N1` [Example 13, 7-(4-phenyl-piperazin-1-ylmethyl)-4H-benzo[1,4]oxazine-3-one], the Ki in assay [1] (setting [3]) was 129 nM; in assay [2] (read-out: D4 (Ki)) it was 6.09 nM. Take `Cc1ccc(C2CCN(Cc3ccc4c(c3)OCC(=O)N4)CC2)cc1C` [Example 36, 7-[4-(3,4-Dimethyl-phenyl)-piperidin-1-ylmethyl]-4H-benzo[1,4]oxazin-3-one]: the Ki is 610 nM in assay [1] (setting [3]) and 2.61 nM in assay [2] (read-out: D4 (Ki)). As for `COc1ccc(N2CCN(Cc3ccc4c(c3)OCC(=O)N4)CC2)cc1` [Example 34, 7-[4-(4-Methoxy-phenyl)-piperazin-1-ylmethyl]-4H-benzo[1,4]oxazin-3-one], the Ki is no less than 5880 nM in assay [1] (setting [3]) and 5 nM in assay [2] (read-out: D4 (Ki)). In assay [2], the “D2/D4 Ratio” value amounted to 1176.5. `Cc1ccc(N2CCN(Cc3ccc4c(c3)OCC(=O)N4)CC2)cc1C` [Example 14, 7-[4-(3,4-dimethyl-phenyl)-piperazin-1-ylmethyl]-4H-benzo[1,4]oxazine-3-one]: in assay [1] (setting [3]), the Ki worked out at 346 nM. As to `Cc1ccc(C2CCN(Cc3ccc4c(c3)OCC(=O)N4)CC2)cc1` [Example 41, 7-(4-p-Tolyl-piperidin-1-ylmethyl)-4H-benzo[1,4]oxazin-3-one], the values for the Ki in assay [1] (setting [3]) and in assay [2] (read-out: D4 (Ki)) were 287 nM and 2.6 nM, respectively. Further, the “D2/D4 Ratio” value in assay [2] is listed as 110.5. Regarding `Cc1ccc(C2CCN(Cc3ccc4c(c3)NC(=O)CO4)CC2)cc1` [Example 16, 6-(4-p-tolyl-piperidin-1-ylmethyl)-4H-benxo[1,4]oxazin-3-one], in assay [2] (setting [4]), the Ki was determined as 2.84 nM. As for `COc1ccc(C2CCN(Cc3ccc4c(c3)NC(=O)CO4)CC2)cc1` [Example 37, 6-[4-(4-Methoxy-phenyl) -piperidin-1-ylmethyl]-4H-benzo[1,4]oxazin-3-one], the Ki in assay [1] (setting [3]) worked out at 698 nM.

(Values after patent EP0906294B1 (WARNER-LAMBERT COMPANY, priority 1996, dated 1997).)
